Where a name gives a salt, the structure may show the parent alone. Read-outs that look alike come from different tables or passages of the source.
Conditions: opioid withdrawal patients
Source text: The participants were continuously monitored by the site personnel, including blood pressure and heart rate, from the start of the infusion through resolution of sedation and/or any adverse effects on blood pressure or heart rate. An electrocardiogram was obtained at screening, pre-infusion and upon resolution of sedation, a predetermined reduction in COWS or return to baseline.

Cc1cccc([C@H](C)c2cnc[nH]2)c1C [dexmedetomidine hydrochloride]
Diastolic blood pressure Max (Day-1, 00:00 Hr): 110 mm of Hg
Diastolic blood pressure Mean ± SD (Day-1, 00:00 Hr): 83.81 ± 12.99 mm of Hg
Diastolic blood pressure Median (Day-1, 00:00 Hr): 82 mm of Hg
Diastolic blood pressure Min (Day-1, 00:00 Hr): 64 mm of Hg
Heart rate Max (Day-1, 00:00 Hr): 106 beats/minutes
Heart rate Mean ± SD (Day-1, 00:00 Hr): 69.9 ± 16.37 beats/minutes
Heart rate Median (Day-1, 00:00 Hr): 66 beats/minutes
Heart rate Min (Day-1, 00:00 Hr): 55 beats/minutes
Diastolic blood pressure Max (Day-1, 00:15 Hr): 96 mm of Hg
Diastolic blood pressure Mean ± SD (Day-1, 00:15 Hr): 78.09 ± 9.99 mm of Hg
Diastolic blood pressure Median (Day-1, 00:15 Hr): 76 mm of Hg
Diastolic blood pressure Min (Day-1, 00:15 Hr): 62 mm of Hg
Heart rate Max (Day-1, 00:15 Hr): 86 beats/minutes
Heart rate Mean ± SD (Day-1, 00:15 Hr): 66.36 ± 11.9 beats/minutes
Heart rate Median (Day-1, 00:15 Hr): 67 beats/minutes
Heart rate Min (Day-1, 00:15 Hr): 49 beats/minutes
Diastolic blood pressure Max (Day-1, 00:30 Hr): 86 mm of Hg
Diastolic blood pressure Mean ± SD (Day-1, 00:30 Hr): 70 ± 8.8 mm of Hg
Diastolic blood pressure Median (Day-1, 00:30 Hr): 68 mm of Hg
Diastolic blood pressure Min (Day-1, 00:30 Hr): 59 mm of Hg
Heart rate Max (Day-1, 00:30 Hr): 84 beats/minutes
Heart rate Mean ± SD (Day-1, 00:30 Hr): 66.88 ± 12.26 beats/minutes
Heart rate Median (Day-1, 00:30 Hr): 70 beats/minutes
Heart rate Min (Day-1, 00:30 Hr): 52 beats/minutes
Diastolic blood pressure Max (Day-1, 00:45 Hr): 86 mm of Hg
Diastolic blood pressure Mean ± SD (Day-1, 00:45 Hr): 74.5 ± 7.67 mm of Hg
Diastolic blood pressure Median (Day-1, 00:45 Hr): 76 mm of Hg
Diastolic blood pressure Min (Day-1, 00:45 Hr): 61 mm of Hg
Heart rate Max (Day-1, 00:45 Hr): 89 beats/minutes
Heart rate Mean ± SD (Day-1, 00:45 Hr): 68.83 ± 14.91 beats/minutes
Heart rate Median (Day-1, 00:45 Hr): 66 beats/minutes
Heart rate Min (Day-1, 00:45 Hr): 50 beats/minutes
Diastolic blood pressure Max (Day-1, 01:00 Hr): 77 mm of Hg
Diastolic blood pressure Mean ± SD (Day-1, 01:00 Hr): 71.4 ± 6.05 mm of Hg
Diastolic blood pressure Median (Day-1, 01:00 Hr): 72 mm of Hg
Diastolic blood pressure Min (Day-1, 01:00 Hr): 60 mm of Hg
Heart rate Max (Day-1, 01:00 Hr): 85 beats/minutes
Heart rate Mean ± SD (Day-1, 01:00 Hr): 69.6 ± 11.35 beats/minutes
Heart rate Median (Day-1, 01:00 Hr): 66 beats/minutes
Heart rate Min (Day-1, 01:00 Hr): 54 beats/minutes
Diastolic blood pressure Max (Day-1, 01:15 Hr): 82 mm of Hg
Diastolic blood pressure Mean ± SD (Day-1, 01:15 Hr): 72 ± 8.16 mm of Hg
Diastolic blood pressure Median (Day-1, 01:15 Hr): 72 mm of Hg
Diastolic blood pressure Min (Day-1, 01:15 Hr): 62 mm of Hg
Heart rate Max (Day-1, 01:15 Hr): 76 beats/minutes
Heart rate Mean ± SD (Day-1, 01:15 Hr): 72 ± 2.82 beats/minutes
Heart rate Median (Day-1, 01:15 Hr): 70 beats/minutes
Heart rate Min (Day-1, 01:15 Hr): 70 beats/minutes
Diastolic blood pressure Max (Day-1, 01:30 Hr): 66 mm of Hg
Diastolic blood pressure Mean ± SD (Day-1, 01:30 Hr): 61 ± 5 mm of Hg
Diastolic blood pressure Median (Day-1, 01:30 Hr): 61 mm of Hg
Diastolic blood pressure Min (Day-1, 01:30 Hr): 56 mm of Hg
Heart rate Max (Day-1, 01:30 Hr): 61 beats/minutes
Heart rate Mean ± SD (Day-1, 01:30 Hr): 60.5 ± 0.5 beats/minutes
Heart rate Median (Day-1, 01:30 Hr): 60.5 beats/minutes
Heart rate Min (Day-1, 01:30 Hr): 60 beats/minutes
Diastolic blood pressure Max (Day-1, 30 min. post Infusion): 86 mm of Hg
Diastolic blood pressure Mean ± SD (Day-1, 30 min. post Infusion): 75.27 ± 9.22 mm of Hg
Diastolic blood pressure Median (Day-1, 30 min. post Infusion): 73 mm of Hg
Diastolic blood pressure Min (Day-1, 30 min. post Infusion): 60 mm of Hg
Heart rate Max (Day-1, 30 min. post Infusion): 99 beats/minutes
Heart rate Mean ± SD (Day-1, 30 min. post Infusion): 65.18 ± 14.03 beats/minutes
Heart rate Median (Day-1, 30 min. post Infusion): 62 beats/minutes
Heart rate Min (Day-1, 30 min. post Infusion): 50 beats/minutes
Diastolic blood pressure Max (Day-1, Screening): 108 mm of Hg
Diastolic blood pressure Mean ± SD (Day-1, Screening): 84.18 ± 13.13 mm of Hg
Diastolic blood pressure Median (Day-1, Screening): 81 mm of Hg
Diastolic blood pressure Min (Day-1, Screening): 63 mm of Hg
Heart rate Max (Day-1, Screening): 108 beats/minutes
Heart rate Mean ± SD (Day-1, Screening): 68.54 ± 15.32 beats/minutes
Heart rate Median (Day-1, Screening): 66 beats/minutes
Heart rate Min (Day-1, Screening): 55 beats/minutes
Diastolic blood pressure Max (Day-2, 00:00 Hr): 88 mm of Hg
Diastolic blood pressure Mean ± SD (Day-2, 00:00 Hr): 78.4 ± 7.86 mm of Hg
Diastolic blood pressure Median (Day-2, 00:00 Hr): 79 mm of Hg
Diastolic blood pressure Min (Day-2, 00:00 Hr): 69 mm of Hg
Heart rate Max (Day-2, 00:00 Hr): 94 beats/minutes
Heart rate Mean ± SD (Day-2, 00:00 Hr): 68.8 ± 13.94 beats/minutes
Heart rate Median (Day-2, 00:00 Hr): 63 beats/minutes
Heart rate Min (Day-2, 00:00 Hr): 55 beats/minutes
Diastolic blood pressure Max (Day-2, 00:15 Hr): 90 mm of Hg
Diastolic blood pressure Mean ± SD (Day-2, 00:15 Hr): 77.4 ± 9.91 mm of Hg
Diastolic blood pressure Median (Day-2, 00:15 Hr): 76 mm of Hg
Diastolic blood pressure Min (Day-2, 00:15 Hr): 62 mm of Hg
Heart rate Max (Day-2, 00:15 Hr): 85 beats/minutes
Heart rate Mean ± SD (Day-2, 00:15 Hr): 67.4 ± 12.35 beats/minutes
Heart rate Median (Day-2, 00:15 Hr): 61 beats/minutes
Heart rate Min (Day-2, 00:15 Hr): 53 beats/minutes
Diastolic blood pressure Max (Day-2, 00:30 Hr): 84 mm of Hg
Diastolic blood pressure Mean ± SD (Day-2, 00:30 Hr): 73.4 ± 8.54 mm of Hg
Diastolic blood pressure Median (Day-2, 00:30 Hr): 71 mm of Hg
Diastolic blood pressure Min (Day-2, 00:30 Hr): 61 mm of Hg
Heart rate Max (Day-2, 00:30 Hr): 93 beats/minutes
Heart rate Mean ± SD (Day-2, 00:30 Hr): 68.2 ± 5.54 beats/minutes
Heart rate Median (Day-2, 00:30 Hr): 58 beats/minutes
Heart rate Min (Day-2, 00:30 Hr): 54 beats/minutes
Diastolic blood pressure Max (Day-2, 00:45 Hr): 86 mm of Hg
Diastolic blood pressure Mean ± SD (Day-2, 00:45 Hr): 79 ± 7.68 mm of Hg
Diastolic blood pressure Median (Day-2, 00:45 Hr): 82 mm of Hg
Diastolic blood pressure Min (Day-2, 00:45 Hr): 66 mm of Hg
Heart rate Max (Day-2, 00:45 Hr): 97 beats/minutes
Heart rate Mean ± SD (Day-2, 00:45 Hr): 69 ± 16.80 beats/minutes
Heart rate Median (Day-2, 00:45 Hr): 63 beats/minutes
Heart rate Min (Day-2, 00:45 Hr): 53 beats/minutes
Diastolic blood pressure Max (Day-2, 01:00 Hr): 87 mm of Hg
Diastolic blood pressure Mean ± SD (Day-2, 01:00 Hr): 79.33 ± 7.58 mm of Hg
Diastolic blood pressure Median (Day-2, 01:00 Hr): 82 mm of Hg
Diastolic blood pressure Min (Day-2, 01:00 Hr): 69 mm of Hg
Heart rate Max (Day-2, 01:00 Hr): 94 beats/minutes
Heart rate Mean ± SD (Day-2, 01:00 Hr): 72.66 ± 17.15 beats/minutes
Heart rate Median (Day-2, 01:00 Hr): 72 beats/minutes
Heart rate Min (Day-2, 01:00 Hr): 52 beats/minutes
Diastolic blood pressure Max (Day-2, 01:15 Hr): 101 mm of Hg

From US20210267944A1 (BioXcel Therapeutics, Inc., priority 2018, published 2021)
